Experimental data reported in ChEMBL document CHEMBL3352200, “Thio-sugar motif of functional CARB-pharmacophore for antineoplastic activity. Part 2” (Bioorg Med Chem Lett, 2014).
pIC50: −log10 of the molar value.

Tests used:
A549 [1] = experiment: Cytotoxicity against human A549 cells after 14 hrs by CCK-8 assay; assay type: functional, cell-based; conditions: A549, 14 h
HeLa [2] = experiment: Cytotoxicity against human HeLa cells after 14 hrs by CCK-8 assay; assay type: functional, cell-based
MCF7 [3] = experiment: Cytotoxicity against human MCF7 cells after 14 hrs by CCK-8 assay; assay type: functional, cell-based; conditions: MCF7, 14 h
LoVo [4] = experiment: Cytotoxicity against human LoVo cells after 14 hrs by CCK-8 assay; assay type: functional, cell-based
[5] = Cytotoxicity against human PNT2 cells at 8.6 to 2200 uM after 14 hrs by CCK-8 assay; assay type: cell-based; conditions: pnt2, 14 h
LoVo [6] = experiment: Induction of apoptosis in human LoVo cells assessed as viable cells at 17 uM after 4 hrs by FITC Annexin-V/propidium iodide staining-based flow cytometry (reference value: 79.50%); assay type: functional; conditions: read-out: Activity
LoVo [7] = experiment: Induction of apoptosis in human LoVo cells assessed as viable cells at 137 uM after 4 hrs by FITC Annexin-V/propidium iodide staining-based flow cytometry (reference value: 79.50%); assay type: functional; conditions: read-out: Activity
LoVo [8] = experiment: Induction of apoptosis in human LoVo cells assessed as apoptotic cells at 17 uM after 4 hrs by FITC Annexin-V/propidium iodide staining-based flow cytometry (reference value: 20.50%); assay type: functional
LoVo [9] = experiment: Induction of apoptosis in human LoVo cells assessed as apoptotic cells at 137 uM after 4 hrs by FITC Annexin-V/propidium iodide staining-based flow cytometry (reference value: 20.50%); assay type: functional
A549 [10] = experiment: Induction of apoptosis in human A549 cells assessed as viable cells at 8.6 uM after 4 hrs by FITC Annexin-V/propidium iodide staining-based flow cytometry (reference value: 84.40%); assay type: functional; conditions: A549, 4 h, read-out: Activity
A549 [11] = experiment: Induction of apoptosis in human A549 cells assessed as viable cells at 69 uM after 4 hrs by FITC Annexin-V/propidium iodide staining-based flow cytometry (reference value: 84.40%); assay type: functional; conditions: A549, 4 h, read-out: Activity
A549 [12] = experiment: Induction of apoptosis in human A549 cells assessed as apoptotic cells at 8.6 uM after 4 hrs by FITC Annexin-V/propidium iodide staining-based flow cytometry (reference value: 15.60%); assay type: functional
A549 [13] = experiment: Induction of apoptosis in human A549 cells assessed as apoptotic cells at 69 uM after 4 hrs by FITC Annexin-V/propidium iodide staining-based flow cytometry (reference value: 15.60%); assay type: functional
MCF7 [14] = experiment: Induction of apoptosis in human MCF7 cells assessed as viable cells at 4.3 uM after 4 hrs by FITC Annexin-V/propidium iodide staining-based flow cytometry (reference value: 70.40%); assay type: functional; conditions: MCF7, 4 h, read-out: Activity
MCF7 [15] = experiment: Induction of apoptosis in human MCF7 cells assessed as viable cells at 34 uM after 4 hrs by FITC Annexin-V/propidium iodide staining-based flow cytometry (reference value: 70.40%); assay type: functional; conditions: MCF7, 4 h, read-out: Activity
MCF7 [16] = experiment: Induction of apoptosis in human MCF7 cells assessed as apoptotic cells at 4.3 uM after 4 hrs by FITC Annexin-V/propidium iodide staining-based flow cytometry (reference value: 29.60%); assay type: functional
MCF7 [17] = experiment: Induction of apoptosis in human MCF7 cells assessed as apoptotic cells at 34 uM after 4 hrs by FITC Annexin-V/propidium iodide staining-based flow cytometry (reference value: 29.60%); assay type: functional
HeLa [18] = experiment: Induction of apoptosis in human HeLa cells assessed as viable cells at 8.6 uM after 4 hrs by FITC Annexin-V/propidium iodide staining-based flow cytometry (reference value: 87.00%); assay type: functional; conditions: read-out: Activity
HeLa [19] = experiment: Induction of apoptosis in human HeLa cells assessed as viable cells at 69 uM after 4 hrs by FITC Annexin-V/propidium iodide staining-based flow cytometry (reference value: 87.00%); assay type: functional; conditions: read-out: Activity
HeLa [20] = experiment: Induction of apoptosis in human HeLa cells assessed as apoptotic cells at 8.6 uM after 4 hrs by FITC Annexin-V/propidium iodide staining-based flow cytometry (reference value: 13.00%); assay type: functional
HeLa [21] = experiment: Induction of apoptosis in human HeLa cells assessed as apoptotic cells at 69 uM after 4 hrs by FITC Annexin-V/propidium iodide staining-based flow cytometry (reference value: 13.00%); assay type: functional
[22] = Lipophilicity, log P of the compound; assay type: physicochemical; conditions: octanol/water
LoVo [23] = experiment: Induction of apoptosis in human LoVo cells assessed as viable cells at 69 uM after 4 hrs by FITC Annexin-V/propidium iodide staining-based flow cytometry (reference value: 79.50%); assay type: functional; conditions: read-out: Activity
LoVo [24] = experiment: Induction of apoptosis in human LoVo cells assessed as viable cells at 550 uM after 4 hrs by FITC Annexin-V/propidium iodide staining-based flow cytometry (reference value: 79.50%); assay type: functional; conditions: read-out: Activity
LoVo [25] = experiment: Induction of apoptosis in human LoVo cells assessed as apoptotic cells at 69 uM after 4 hrs by FITC Annexin-V/propidium iodide staining-based flow cytometry (reference value: 20.50%); assay type: functional
LoVo [26] = experiment: Induction of apoptosis in human LoVo cells assessed as apoptotic cells at 550 uM after 4 hrs by FITC Annexin-V/propidium iodide staining-based flow cytometry (reference value: 20.50%); assay type: functional
A549 [27] = experiment: Induction of apoptosis in human A549 cells assessed as viable cells at 550 uM after 4 hrs by FITC Annexin-V/propidium iodide staining-based flow cytometry (reference value: 84.40%); assay type: functional; conditions: A549, 4 h, read-out: Activity
A549 [28] = experiment: Induction of apoptosis in human A549 cells assessed as apoptotic cells at 550 uM after 4 hrs by FITC Annexin-V/propidium iodide staining-based flow cytometry (reference value: 15.60%); assay type: functional
MCF7 [29] = experiment: Induction of apoptosis in human MCF7 cells assessed as viable cells at 275 uM after 4 hrs by FITC Annexin-V/propidium iodide staining-based flow cytometry (reference value: 70.40%); assay type: functional; conditions: MCF7, 4 h, read-out: Activity
MCF7 [30] = experiment: Induction of apoptosis in human MCF7 cells assessed as apoptotic cells at 275 uM after 4 hrs by FITC Annexin-V/propidium iodide staining-based flow cytometry (reference value: 29.60%); assay type: functional
HeLa [31] = experiment: Induction of apoptosis in human HeLa cells assessed as viable cells at 550 uM after 4 hrs by FITC Annexin-V/propidium iodide staining-based flow cytometry (reference value: 87.00%); assay type: functional; conditions: read-out: Activity
HeLa [32] = experiment: Induction of apoptosis in human HeLa cells assessed as apoptotic cells at 550 uM after 4 hrs by FITC Annexin-V/propidium iodide staining-based flow cytometry (reference value: 13.00%); assay type: functional

logP [22] | SMILES | pIC50 (A549 [1]) | pIC50 (HeLa [2]) | pIC50 (MCF7 [3]) | pIC50 (LoVo [4]) | Activity [5] [%] | viability at 69 µM (A549 [11]) [%] | Activity (A549 [13]) [%] | viability at 34 µM (MCF7 [15]) [%] | Activity (MCF7 [17]) [%] | viability at 69 µM (HeLa [19]) [%] | Activity (HeLa [21]) [%] | other results
-1.13 | CC(=O)OC[C@H]1O[C@@H](S[C@H]2CC(=O)[C@@H]3OC[C@H]2O3)[C@H](OC(C)=O)[C@@H](OC(C)=O)[C@@H]1OC(C)=O | 3.92 | 4.04 | 4.33 | 3.78 | 10 | 75.8 | 24.2 | 68.8 | 31.25 | 63.1 | 36.9 | viability at 17 µM (LoVo [6]): 72.5%; viability at 137 µM (LoVo [7]): 69.7%; Activity (LoVo [8]): 27.55%; Activity (LoVo [9]): 30.3%; viability at 8.6 µM (A549 [10]): 76.4%; Activity (A549 [12]): 23.6%; viability at 4.3 µM (MCF7 [14]): 63.1%; Activity (MCF7 [16]): 36.9%; viability at 8.6 µM (HeLa [18]): 80%; Activity (HeLa [20]): 20%
-2.05 | O=C1C[C@H](S[C@@H]2O[C@H](CO)[C@@H](O)[C@H](O)[C@H]2O)[C@H]2CO[C@@H]1O2 | 3.16 | 2.97 | 3.44 | 3.11 | 10 | 70.3 | 29.7 | 75.1 | 24.9 | 82.6 | 17.4 | viability at 69 µM (LoVo [23]): 71%; viability at 550 µM (LoVo [24]): 62.4%; Activity (LoVo [25]): 29%; Activity (LoVo [26]): 37.65%; viability at 550 µM (A549 [27]): 74.3%; Activity (A549 [28]): 25.7%; viability at 275 µM (MCF7 [29]): 26.4%; Activity (MCF7 [30]): 73.6%; viability at 550 µM (HeLa [31]): 67.2%; Activity (HeLa [32]): 32.8%
